The record followed here is patent EP1132396A1, “PHYSIOLOGICALLY ACTIVE PEPTIDES” (KYOWA HAKKO KOGYO CO., LTD., priority 1998, dated 2000).

Values after ≈ are worked out from the molar mass of the structure shown. Residues, ends and D or L forms follow the SMILES beside them.

Data set [1] concerns mouse hair follicle cells. The experiment in a line: Cell growth-promoting effect on cultured mouse hair follicle cells (Neutral Red). It is filed as cell-based, C3H mouse. As to conditions: 5 days culture. How it is done:
Mouse hair follicle cells were separated and cultured according to a modification of the method of Tanigaki, et al. [Archives of Dermatological Research, 284, 290-296 (1992)].
The skin on the back of a 4-days-old C3H mouse (Nippon Charles River Co., Ltd.) was cut off and treated with Eagle's MEM (Eagle's Minimum Essential Medium, Nissui Pharmaceutical Co., Ltd.) containing 500 units/ml Dispase (Godo Shusei Co., Ltd.) and 5% fetal calf serum (FCS) at 4°C for 16 hours. Then, the epidermis was stripped from the skin section, and the obtained dermis layer was treated with DMEM (Dulbecco's Modified Eagle Medium) containing 0.25% Collagenase N-2 (Nitta Gelatin Co., Ltd.) and 10% FCS at 37°C for one hour to obtain a dermis suspension. The dermis suspension was filtered through a 212-µm nylon mesh (Nippon Rikagaku Kikai Co., Ltd.) and the filtrate was centrifuged at 1000 rpm for 5 minutes to obtain pellets containing hair follicle tissue. To the pellets was added calcium/magnesium-free PBS (Dulbecco's Phosphate-Buffered Saline) and the pellets were suspended therein using a pipette. The resulting suspension was allowed to stand for 15 minutes to precipitate the hair tissue. The same procedure as above (addition of calcium/magnesium-free PBS, preparation of a suspension using a pipette, and precipitation by standing for 15 minutes) was repeated three times using the obtained hair tissue. Then, the hair tissue was treated with an aqueous solution containing 0.1% ethylenediaminetetraacetic acid (EDTA) and 0.25% trypsin (Gibco) at 37°C for 5 minutes. To the resulting mixture was added DMEM containing 10% FCS to prepare a hair tissue cell suspension having a density of 3 x 10^5 cells/ml.
This hair tissue cell suspension was put into wells of a 24-well collagen-coated plate (Iwaki Glass Co., Ltd.) in an amount of 1 ml/well, followed by culturing in 5% CO2 at 37°C for 24 hours. After the completion of culturing, the medium was replaced by a medium prepared by adding to MCDB153 medium (Kyokuto Pharmaceutical Ind. Co., Ltd.) 5 mg/l bovine insulin (Sigma Chemical Co.), 5 µg/l mouse epidermal growth factor (EGF) (Takara Shuzo Co., Ltd.), 40 mg/l bovine pituitary extract (Kyokuto Pharmaceutical Ind. Co., Ltd.), 10 mg/l human transferrin (Sigma Chemical Co.), 0.4 mg/l hydrocortisone (Sigma Chemical Co.), 0.63 µg/l progesterone (Collaborative Research Co.), 14 mg/l O-phosphoethanolamine (Sigma Chemical Co.), 6.1 mg/l ethanolamine (Sigma Chemical Co.), 50 U/ml penicillin (Wako Pure Chemical Industries, Ltd.), 50 µg/ml streptomycin (Wako Pure Chemical Industries, Ltd.) and a dimethyl sulfoxide (DMSO) solution containing a peptide of the present invention (added in an amount of 1/100 by volume based on the medium), followed by further culturing in 5% CO2 at 37°C for 5 days. During the culturing, the medium was replaced with a fresh one every other day.
As a control, the cells were cultured in the same medium as above except that DMSO containing no peptide was added in an amount of 1/100 by volume based on the culture in place of DMSO containing the peptide.
The degree of cell growth was measured referring to the method using Neutral Red [Journal of Tissue Culture Method, 9, 1, 7-9 (1984)].
After the completion of culturing, the medium was sucked and the resulting cells were cultured in MCDB153 medium containing 50 mg/l Neutral Red (Sigma Chemical Co.) in 5% CO2 at 37°C for 3 hours. […] The degree of cell growth was determined by measuring the absorbance of the extract at 540 nm. […]

The subject of a further data set is C3H/HeSlc mice. The experiment in a line: Effect on hair growth of mouse (feed administration). Format: in vivo. Conditions: 20th day, control group subtracted. How it is done: A test of the effect on hair growth of mice was carried out referring to the method of Ogawa, et al. [The Journal of Dermatology, 10, 45-54 (1983)].
Nine-weeks-old male C3H/HeSlc mice whose hair cycle was in the telogen (Japan SLC) were divided into groups each consisting of 4 or 5 mice. Hair on the back of each mouse was carefully shaven using electric hair clippers and an electric shaver. Then, the mice were fed with the feeds prepared in Reference Examples 1-4.
The control group was fed only with a powder feed containing no peptide of the present invention (CE-2, Clea Japan, Inc.)
On the 20th day after the start of the test, the skin on the back of each mouse was cut off and photographed. Using an image processor (Avionics Co., Spicca II), the percentage of the hair-grown area to the total area of the skin on the back was calculated. The rate of the increased hair-grown area (%) was obtained by subtracting the hair-growing rate of the control group from the hair-growing rate of the group fed with a powder feed containing a peptide of the present invention.

Data set [2] is described as follows: Water solubility of the peptides. It is filed as physicochemical. An excerpt: The physicochemical properties of the peptides of the present invention obtained by the above-described process are shown below.
For data set [3], the system named is human peripheral blood leukocytes. The experiment in a line: Measurement of phagocytosis activity (fluorescence-labeled latex beads, flow cytometry). Format: cell-based. Conditions: rate based on the control (only PBS). How it is done:
To human peripheral blood was added physiological saline containing phosphate buffer (PBS), and the resulting mixture was centrifuged at 1000 rpm for 5 minutes to wash blood cells. Then, the blood cells were suspended in PBS to prepare a suspension having a density of 4 x 10^6 cells/ml. To 100 µl of the suspension was added 10 µl of a solution of a peptide in PBS, followed by incubation at 37°C for 10 minutes. Then, 10 µl of a suspension of 4 x 10^8/ml fluorescence-labeled latex beads opsonized with human peripheral blood was added thereto, and the resulting mixture was incubated for 5 minutes. To the mixture was added PBS containing ethylenediaminetetraacetic acid (EDTA) to stop the reaction. The resulting mixture was centrifuged to separate blood cells, and an ammonium chloride hemolyzing agent was added thereto for hemolysis to obtain leukocytes. After the obtained leukocytes were suspended in PBS containing EDTA, the resulting suspension was subjected to flow cytometry, and the number of cells which phagocytosed latex beads was calculated.
The results are expressed in terms of the rate based on the control (containing only PBS).
A general note: Flow cytometry measures light scatter and fluorescence of single cells or particles in a stream.

As usually defined, the solubility is the concentration that dissolves in the medium under given conditions. A lower solubility goes with a poorly soluble substance.

Take `CC[C@H](C)[C@H](NC(=O)[C@@H](N)CCSC)C(=O)N[C@@H](Cc1c[nH]c2ccccc12)C(=O)O` [MIW] (H-Met-Ile-Trp-OH): the “Relative cell growth rate (%) (based on the control)” value in data set [1] (Concentration 1 µM) is reported as 97%; in data set [1] (Concentration 3 µM), 143%; in data set [1] (Concentration 10 µM), 130%; in data set [1] (Concentration 30 µM), 123%; in data set [1] (Concentration 100 µM) it was 119%. Also, the results for the “Rate of increased hair-grown area (%)” value in the data set with C3H/HeSlc mice (0.005% addition to feed) and in the data set on C3H/HeSlc mice (0.05% addition to feed) were 20.7% and 23.7%, respectively. Besides, in data set [2], the solubility worked out at 1000 µg/mL (≈ 2230 µM).
As for `CC[C@H](C)[C@H](NC(=O)[C@@H](NC(=O)[C@@H](N)CCSC)[C@@H](C)CC)C(=O)N[C@@H](CC(C)C)C(=O)O` [MIIL] (H-MIIL-OH), the Phagocytosis activity was found to be 1.18 ± 0.07 in data set [3] (Concentration 1 µM), 1.62 ± 0.08 in data set [3] (Concentration 3 µM), 2.52 ± 0.18 in data set [3] (Concentration 10 µM) and 2.95 ± 0.20 in data set [3] (Concentration 30 µM). This compound showed a solubility in data set [2] of 200 µg/mL (≈ 409 µM).
For `CC[C@H](C)[C@H](NC(=O)[C@@H](N)CCSC)C(=O)N[C@@H](Cc1c[nH]c2ccccc12)C(=O)N[C@@H](CC(C)C)C(=O)O` [MIWL] (H-MIWL-OH), the Phagocytosis activity is listed as 1.93 ± 0.18 in data set [3] (Concentration 0.1 µM), 2.74 ± 0.25 in data set [3] (Concentration 0.3 µM), 3.11 ± 0.07 in data set [3] (Concentration 1 µM) and 3.04 ± 0.50 in data set [3] (Concentration 3 µM). Besides, the “Rate of increased hair-grown area (%)” value in the data set with C3H/HeSlc mice (0.05% addition to feed) stood at 34.4%. For the same compound, in data set [2], the concentration in solution (solubility) came to 200 µg/mL (≈ 356 µM).
Turning to `CC[C@H](C)[C@H](NC(=O)[C@@H](N)CCSC)C(=O)N[C@@H](Cc1ccc(O)cc1)C(=O)N[C@@H](CC(C)C)C(=O)O` [MIYL] (H-MIYL-OH), the Phagocytosis activity is 1.32 ± 0.15 in data set [3] (Concentration 1 µM), 2.21 ± 0.25 in data set [3] (Concentration 3 µM) and 3.12 ± 0.32 in data set [3] (Concentration 10 µM). In addition, the concentration in solution in data set [2] (solubility) came to 300 µg/mL (≈ 557 µM).
Consider `CC[C@H](C)[C@H](NC(=O)[C@@H](N)CCSC)C(=O)N[C@@H](CC(C)C)C(=O)N[C@@H](CC(C)C)C(=O)O` [MILL] (H-MILL-OH), for which the Phagocytosis activity in data set [3] (Concentration 3 µM) is on record as 1.28 ± 0.09; in data set [3] (Concentration 10 µM) it was 2.05 ± 0.08; in data set [3] (Concentration 30 µM), 2.97 ± 0.17. The same compound registered a solubility in data set [2] of 200 µg/mL (≈ 409 µM).
As for `CC[C@H](C)[C@H](NC(=O)[C@@H](N)CCSC)C(=O)N[C@@H](Cc1ccccc1)C(=O)N[C@@H](CC(C)C)C(=O)O` [MIFL] (H-MIFL-OH), the Phagocytosis activity in data set [3] (Concentration 0.1 µM) came to 1.10 ± 0.09; in data set [3] (Concentration 0.3 µM), 1.68 ± 0.08; in data set [3] (Concentration 1 µM), 2.45 ± 0.17; in data set [3] (Concentration 3 µM), 3.06 ± 0.25. For the same compound, the concentration in solution in data set [2] (solubility) was 200 µg/mL (≈ 383 µM).
For the compound `CC[C@H](C)[C@H](NC(=O)[C@@H](N)CCSC)C(=O)N[C@@H](Cc1ccccc1)C(=O)O` [MIF] (H-Met-Ile-Phe-OH), the “Rate of increased hair-grown area (%)” value in the data set on C3H/HeSlc mice (0.005% addition to feed) is 26.8%. The compound further yielded a solubility in data set [2] of 30000 µg/mL (≈ 73300 µM).
